Data published in patent US20180127360A1 (Elé Corporation, priority 2016, published 2018).

Test: Surface tension, du Nouy ring interfacial tensiometer
Type: physicochemical
Details: 25° C.
Procedure: Surface tension measurements were taken on solutions made from the mixture prepared in Example 1(C) using a du Nouy ring interfacial tensiometer, equipped with a six-cm circumference platinum-iridium ring. A series of test solutions at different concentrations were prepared and their surface tension measured at 25° C. For each test concentration, the ring is slowly drawn out of the liquid. The surface tension is equal to the force required to draw the ring completely out of the liquid, divided by twice the circumference of the ring. […] The surface tension at the CMC was 29.6 dyne/cm.

## CCCCCCCCCCCCNCCC(=O)O.N=C(N)NCCCC(N)C(=O)O [Example 1(C)]
  surface tension at the CMC: 29.6 dyne/cm
Series of test solutions at different concentrations
  Critical Micelle Concentration (CMC): 2.46 millimoles per liter
